{"source": "patent US6489119B1", "about": "“Analgesic screening method and composition” (priority 1996, dated 2002)", "key": {"L-type Ca channel": {"system": "L-type Ca channel", "assay": "Fluorometric Ca flux in INDO1-loaded GH3 cells", "format": "cell-based", "conditions": "concentrations exceeding 300 AM (highest concentration tested)", "protocol": "(§1) In parallel experiments, SNX-483 was tested for its ability to block voltage-dependent calcium (Ca) and voltage-dependent potassium (K) channels. N- and L-type Ca channel-mediated Ca fluxes were measured fluorometrically using INDO1—loaded IMR32 and GH3 cells, respectively. At concentrations exceeding […] (the highest concentration tested), SNX-483 had no effect on either type of Ca flux."}, "TTXi Na channels [1]": {"target": "TTXi Na channels (Rattus norvegicus, UniProt Q62968)", "assay": "Whole-cell electrophysiological assay of TTXi Na currents in capsaicin-sensitive DRG neurons", "format": "cell-based, Sprague-Dawley rat", "conditions": "DRG neuron; 400 μM, depolarizing steps from holding potential −80 mV; read-out: block of TTXi Na current", "source_text": "(§2) . Using a voltage paradigm during which a pair of depolarizing steps to −10 mV are separated by a 4 ms repolarizing step, greater than 90% of TTXs Na currents remain inactivated (FIG. 2B, see below). FIGS. 2C and 2D present voltage families of the TTXi (rapidly recovering Na current) and TTXs (slowly recovering Na current), respectively, generated using this paired-pulse paradigm. TTXs currents (FIG. 2D) were generated by subtracting Na currents obtained following a prepulse to −10 mV from those obtained without a prepulse. The fraction of the total Na current carried by the fast-recovering, TTXi, Na channel varied from cell to cell (generally from 70-90% of Na current is carried by a TTXi conductance in capsaicin-sensitive DRGs). […].\n(§3) FIG. 4 presents Na currents obtained before and after exposure of cells to solutions containing 50, 100, 200, 500 and 1000 μM SNX-483 in a capsaicin-sensitive DRG neuron (PAN). […] In the experiments presented in FIG. 4, the capsaicin-sensitive neuron was held at −55 mV and stepped twice to −10 mV at 10 second intervals. Similar results have been obtained in every capsaicin-sensitive PAN tested (n=7). Only about 7% of the TTXi Na current that was blocked by 400 μM SNX-483 recovered within 15 minutes of continuously exchanging the recording chamber with fresh extracellular solution. […]"}, "TTXi Na channels [2]": {"system": "TTXi Na channels", "assay": "Whole-cell electrophysiological assay of TTXi Na currents in capsaicin-sensitive DRG neurons", "format": "cell-based, Sprague-Dawley rat", "conditions": "membrane potential −55 mV", "source_text": "as §2, §3"}, "TTXs Na channels": {"system": "TTXs Na channels", "assay": "Whole-cell electrophysiological assay of TTXs Na currents in DRG neurons", "format": "cell-based, Sprague-Dawley rat", "source_text": "FIG. 7 illustrates that at a membrane potential of −55 mV, SNX-483 more potently blocks TTXi Na currents than TTXs Na currents. In experiments carried out in support of the present invention, DRGs containing predominantly TTXi Na currents and TTXs currents were superfused sequentially with increasing concentrations of SNX-483. […]\n10-20 day old Sprague-Dawley rat pups were euthanized using CO2 or decapitation. Dorsal root ganglia were removed and placed in Dulbecco s Minimum Essential Medium supplemented with 10% (v/v) fetal bovine serum (DMEM). Ganglia were then cut into small pieces and transferred to DMEM containing 2 mg/ml collagenase and incubated for 30 minutes in a 37° C. incubator with 5% CO2 atmosphere. After 15 minutes incubation, the pieces were gently triturated by three passages through a glass capillary pulled to 0.2 mm i.d. The collagenase was then removed by three washes in 10 ml of DMEM. The final resuspension was into DMEM supplemented with 50 ng/ml NGF, 50 I.U./ml penicillin and […] streptomycin. Cells were then transferred onto glass coverslips coated with collagen and placed in a 37° C. incubator as above. […]\nTTXs sodium currents can be measured in large DRG neurons or in other cells or cell lines lacking TTXi Na channels. […]"}, "Kv1.3 K channel": {"target": "T1, Kv1.3 K channel (Homo sapiens, UniProt P22001)", "T1 construct": "expressed in transfected cells; host or cells: Xenopus oocytes", "T1 sequence (P22001 whole entry)": "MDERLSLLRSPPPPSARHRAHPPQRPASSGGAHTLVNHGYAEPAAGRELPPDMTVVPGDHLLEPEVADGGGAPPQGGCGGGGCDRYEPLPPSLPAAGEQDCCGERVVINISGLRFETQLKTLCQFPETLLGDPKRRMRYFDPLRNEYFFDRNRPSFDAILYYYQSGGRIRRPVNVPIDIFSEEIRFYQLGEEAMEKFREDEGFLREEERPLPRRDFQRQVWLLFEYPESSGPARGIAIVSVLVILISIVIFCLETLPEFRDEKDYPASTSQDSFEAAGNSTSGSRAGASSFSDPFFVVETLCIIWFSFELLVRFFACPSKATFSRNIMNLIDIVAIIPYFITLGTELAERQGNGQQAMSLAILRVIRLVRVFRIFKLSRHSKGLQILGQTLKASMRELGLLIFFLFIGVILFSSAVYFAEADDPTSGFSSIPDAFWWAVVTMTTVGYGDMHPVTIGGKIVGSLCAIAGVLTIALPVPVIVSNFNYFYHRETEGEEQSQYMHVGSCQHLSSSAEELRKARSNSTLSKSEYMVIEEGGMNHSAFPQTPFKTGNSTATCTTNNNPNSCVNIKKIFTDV", "assay": "K currents of Shaker subfamily channels expressed in xenopus oocytes", "format": "cell-based", "conditions": "concentrations up to 1 μM", "protocol": "(§4) In addition, SNX-483 was evaluated for the ability to inhibit members of the Shaker subfamily of voltage-dependent K channels expressed in xenopus oocytes. At concentrations up to 1 μM, SNX-483 had no effect on K currents mediated by Kv1.1, Kv1.2, Kv1.3 or Kv1.4 K channels."}, "Kv1.4 K channel": {"target": "T2, Kv1.4 K channel (Homo sapiens, UniProt P22459)", "T2 construct": "expressed in transfected cells; host or cells: Xenopus oocytes", "assay": "K currents of Shaker subfamily channels expressed in xenopus oocytes", "format": "cell-based", "conditions": "concentrations up to 1 μM", "protocol": "as §4"}, "Kv1.1 K channel": {"target": "T3, Kv1.1 K channel (Homo sapiens, UniProt Q09470)", "T3 construct": "expressed in transfected cells; host or cells: Xenopus oocytes", "assay": "K currents of Shaker subfamily channels expressed in xenopus oocytes", "format": "cell-based", "conditions": "concentrations up to 1 μM", "protocol": "as §4"}, "Kv1.2 K channel": {"target": "T4, Kv1.2 K channel (Homo sapiens, UniProt P16389)", "T4 construct": "expressed in transfected cells; host or cells: Xenopus oocytes", "T4 sequence (P16389 whole entry)": "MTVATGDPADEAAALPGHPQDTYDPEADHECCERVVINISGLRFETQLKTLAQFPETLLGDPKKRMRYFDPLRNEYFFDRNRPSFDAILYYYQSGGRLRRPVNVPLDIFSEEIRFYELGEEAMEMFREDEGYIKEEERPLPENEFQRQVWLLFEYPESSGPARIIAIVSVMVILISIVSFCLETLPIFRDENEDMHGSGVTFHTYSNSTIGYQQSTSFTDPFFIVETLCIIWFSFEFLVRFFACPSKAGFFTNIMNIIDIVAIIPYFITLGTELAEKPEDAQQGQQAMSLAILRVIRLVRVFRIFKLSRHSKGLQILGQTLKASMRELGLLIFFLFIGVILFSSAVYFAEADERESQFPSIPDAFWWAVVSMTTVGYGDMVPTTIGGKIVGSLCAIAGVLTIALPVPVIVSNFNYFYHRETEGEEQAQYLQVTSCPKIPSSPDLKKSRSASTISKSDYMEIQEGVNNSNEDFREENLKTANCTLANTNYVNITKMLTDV", "assay": "K currents of Shaker subfamily channels expressed in xenopus oocytes", "format": "cell-based", "conditions": "concentrations up to 1 μM", "protocol": "as §4"}, "N-type Ca channel": {"target": "T5, N-type Ca channel (Homo sapiens, UniProt Q00975)", "T5 construct": "endogenous in cells; host or cells: IMR32 cells", "T5 sequence (Q00975 whole entry)": "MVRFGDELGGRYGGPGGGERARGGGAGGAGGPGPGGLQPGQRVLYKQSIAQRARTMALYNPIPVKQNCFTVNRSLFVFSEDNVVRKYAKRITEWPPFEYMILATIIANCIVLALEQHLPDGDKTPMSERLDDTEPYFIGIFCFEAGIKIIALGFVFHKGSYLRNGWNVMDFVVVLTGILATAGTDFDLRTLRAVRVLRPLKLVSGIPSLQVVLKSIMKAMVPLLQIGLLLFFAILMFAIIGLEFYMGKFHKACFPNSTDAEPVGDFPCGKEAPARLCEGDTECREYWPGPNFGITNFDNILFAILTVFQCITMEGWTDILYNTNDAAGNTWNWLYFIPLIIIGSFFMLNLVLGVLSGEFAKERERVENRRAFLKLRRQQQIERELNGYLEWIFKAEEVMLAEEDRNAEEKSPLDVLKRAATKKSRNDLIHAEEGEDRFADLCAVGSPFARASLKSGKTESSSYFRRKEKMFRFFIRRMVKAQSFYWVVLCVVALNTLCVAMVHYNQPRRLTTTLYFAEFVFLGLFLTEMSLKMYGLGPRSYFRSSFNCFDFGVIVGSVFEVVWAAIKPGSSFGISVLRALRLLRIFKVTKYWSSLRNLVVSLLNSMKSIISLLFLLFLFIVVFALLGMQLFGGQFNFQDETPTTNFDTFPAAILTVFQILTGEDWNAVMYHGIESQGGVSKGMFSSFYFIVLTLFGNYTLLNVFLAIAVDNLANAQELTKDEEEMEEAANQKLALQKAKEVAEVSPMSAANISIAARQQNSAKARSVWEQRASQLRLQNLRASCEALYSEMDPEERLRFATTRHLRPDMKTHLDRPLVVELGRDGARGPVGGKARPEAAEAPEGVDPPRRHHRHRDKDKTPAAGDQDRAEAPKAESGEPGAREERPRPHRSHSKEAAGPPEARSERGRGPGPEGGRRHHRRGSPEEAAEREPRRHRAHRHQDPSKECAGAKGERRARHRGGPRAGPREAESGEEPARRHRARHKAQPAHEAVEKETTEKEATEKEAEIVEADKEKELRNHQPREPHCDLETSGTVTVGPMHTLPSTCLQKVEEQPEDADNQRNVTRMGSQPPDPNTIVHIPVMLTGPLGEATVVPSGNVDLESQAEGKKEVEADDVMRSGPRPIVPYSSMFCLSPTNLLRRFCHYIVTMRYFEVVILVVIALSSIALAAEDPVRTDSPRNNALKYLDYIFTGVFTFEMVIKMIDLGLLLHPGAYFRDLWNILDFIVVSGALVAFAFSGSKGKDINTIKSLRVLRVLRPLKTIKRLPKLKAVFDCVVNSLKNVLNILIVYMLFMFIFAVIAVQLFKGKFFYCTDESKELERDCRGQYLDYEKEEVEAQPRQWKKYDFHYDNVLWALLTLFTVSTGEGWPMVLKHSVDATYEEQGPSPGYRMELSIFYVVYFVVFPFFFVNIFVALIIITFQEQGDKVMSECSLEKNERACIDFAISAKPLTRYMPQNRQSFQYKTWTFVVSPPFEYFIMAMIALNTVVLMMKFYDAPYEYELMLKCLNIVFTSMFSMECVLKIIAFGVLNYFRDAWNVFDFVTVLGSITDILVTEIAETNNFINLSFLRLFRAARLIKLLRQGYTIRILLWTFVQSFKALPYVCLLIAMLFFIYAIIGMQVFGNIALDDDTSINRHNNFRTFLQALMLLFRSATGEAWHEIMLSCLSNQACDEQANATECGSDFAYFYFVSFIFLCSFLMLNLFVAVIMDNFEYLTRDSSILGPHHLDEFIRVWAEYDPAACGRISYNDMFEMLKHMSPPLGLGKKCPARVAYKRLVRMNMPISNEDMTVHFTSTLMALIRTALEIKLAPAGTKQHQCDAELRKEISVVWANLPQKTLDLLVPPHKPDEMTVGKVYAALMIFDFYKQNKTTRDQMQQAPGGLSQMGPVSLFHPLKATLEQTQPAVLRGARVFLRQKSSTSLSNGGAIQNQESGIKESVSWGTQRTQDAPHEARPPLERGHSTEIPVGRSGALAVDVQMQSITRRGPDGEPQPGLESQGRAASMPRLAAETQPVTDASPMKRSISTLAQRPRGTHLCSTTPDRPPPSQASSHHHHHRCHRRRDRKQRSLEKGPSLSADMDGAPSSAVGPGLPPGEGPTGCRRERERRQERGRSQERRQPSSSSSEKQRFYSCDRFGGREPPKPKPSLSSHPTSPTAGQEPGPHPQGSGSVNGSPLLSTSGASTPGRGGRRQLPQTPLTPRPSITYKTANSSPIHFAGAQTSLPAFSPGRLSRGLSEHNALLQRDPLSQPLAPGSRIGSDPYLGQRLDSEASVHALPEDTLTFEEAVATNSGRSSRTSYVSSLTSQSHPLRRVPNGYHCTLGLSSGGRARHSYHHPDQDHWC", "T5 sequence (P54289 957-1103, further chain)": "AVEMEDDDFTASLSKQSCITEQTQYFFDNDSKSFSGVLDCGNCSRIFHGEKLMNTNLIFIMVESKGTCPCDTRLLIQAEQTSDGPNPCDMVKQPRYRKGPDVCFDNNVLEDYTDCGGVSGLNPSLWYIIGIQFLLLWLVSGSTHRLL", "T5 sequence (P54284 whole entry, further chain)": "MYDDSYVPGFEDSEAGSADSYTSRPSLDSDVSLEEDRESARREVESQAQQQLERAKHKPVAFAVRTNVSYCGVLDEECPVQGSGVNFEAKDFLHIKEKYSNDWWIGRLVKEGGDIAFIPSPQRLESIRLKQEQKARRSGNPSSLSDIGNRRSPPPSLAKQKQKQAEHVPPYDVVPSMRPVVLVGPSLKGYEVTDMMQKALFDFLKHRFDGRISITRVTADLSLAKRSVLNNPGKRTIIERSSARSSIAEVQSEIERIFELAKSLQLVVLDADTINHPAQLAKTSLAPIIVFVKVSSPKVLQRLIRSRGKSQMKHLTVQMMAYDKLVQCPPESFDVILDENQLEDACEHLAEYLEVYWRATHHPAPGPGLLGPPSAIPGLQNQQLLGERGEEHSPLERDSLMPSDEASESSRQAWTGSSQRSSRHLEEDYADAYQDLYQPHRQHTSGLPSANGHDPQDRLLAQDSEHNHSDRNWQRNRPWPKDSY", "T5 sequence (P54289 25-956, further chain)": "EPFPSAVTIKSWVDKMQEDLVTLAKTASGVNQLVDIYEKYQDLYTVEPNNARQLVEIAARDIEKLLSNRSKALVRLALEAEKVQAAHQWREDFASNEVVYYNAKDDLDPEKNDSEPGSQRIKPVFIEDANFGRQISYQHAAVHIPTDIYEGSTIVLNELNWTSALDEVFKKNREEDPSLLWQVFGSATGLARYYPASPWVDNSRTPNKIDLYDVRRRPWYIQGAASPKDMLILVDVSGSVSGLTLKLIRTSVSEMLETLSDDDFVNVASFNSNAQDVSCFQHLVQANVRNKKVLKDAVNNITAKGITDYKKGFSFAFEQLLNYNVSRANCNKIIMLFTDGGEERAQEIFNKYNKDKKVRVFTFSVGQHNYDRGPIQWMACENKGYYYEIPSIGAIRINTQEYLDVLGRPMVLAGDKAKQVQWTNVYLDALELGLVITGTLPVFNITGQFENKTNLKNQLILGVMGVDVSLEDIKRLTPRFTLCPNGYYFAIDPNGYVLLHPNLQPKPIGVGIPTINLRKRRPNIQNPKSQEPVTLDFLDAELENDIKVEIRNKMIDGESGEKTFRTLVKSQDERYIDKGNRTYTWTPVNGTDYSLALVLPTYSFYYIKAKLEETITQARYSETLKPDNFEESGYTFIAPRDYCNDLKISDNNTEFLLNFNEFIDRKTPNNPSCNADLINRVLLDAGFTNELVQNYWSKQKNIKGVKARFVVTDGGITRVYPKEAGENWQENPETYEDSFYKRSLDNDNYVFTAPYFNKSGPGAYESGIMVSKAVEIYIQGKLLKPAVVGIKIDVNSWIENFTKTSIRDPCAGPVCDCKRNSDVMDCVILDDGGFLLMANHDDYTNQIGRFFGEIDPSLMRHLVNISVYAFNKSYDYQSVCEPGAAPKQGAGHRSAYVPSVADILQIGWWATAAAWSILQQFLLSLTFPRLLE", "assay": "Fluorometric Ca flux in INDO1-loaded IMR32 cells", "format": "cell-based", "conditions": "concentrations exceeding 300 AM (highest concentration tested)", "protocol": "as §1"}}}
{"smiles": "CCNCC(=O)Nc1c(C)ccc(O)c1C", "note": "[SNX-483, 2-(ethylamino)-N-(3-hydroxy-2,6-dimethylphenyl) acetamide]", "values": [{"measurement": "effect on L-type Ca channel-mediated Ca flux", "setting": "L-type Ca channel", "value": "no effect"}, {"measurement": "inhibition at 400 µM", "setting": "TTXi Na channels [1]", "value": 20, "unit": "%"}, {"measurement": "Potency ratio 1/(IC50, TTXi/IC50, TTXs)", "setting": "TTXi Na channels [2]", "value": 3.1}, {"measurement": "block of TTXs Na currents", "setting": "TTXs Na channels; 400 μM, large capsaicin-insensitive DRG clamped at −55 mV, 16 ms repolarizing step", "value": "does not block"}, {"measurement": "IC50", "setting": "TTXs Na channels; membrane potential −55 mV", "value": "222 ± 12", "unit": "µM"}, {"measurement": "effect on K currents mediated by Kv1.3", "setting": "Kv1.3 K channel", "value": "no effect"}, {"measurement": "effect on K currents mediated by Kv1.4", "setting": "Kv1.4 K channel", "value": "no effect"}, {"measurement": "effect on K currents mediated by Kv1.1", "setting": "Kv1.1 K channel", "value": "no effect"}, {"measurement": "effect on K currents mediated by Kv1.2", "setting": "Kv1.2 K channel", "value": "no effect"}, {"measurement": "effect on N-type Ca channel-mediated Ca flux", "setting": "N-type Ca channel", "value": "no effect"}]}
